According to patent US20230002359A1, “PESTICIDALLY ACTIVE FUSED BICYCLIC HETEROAROMATIC COMPOUNDS” (priority 2019, published 2023):

Tests used:
Type in all cases: in vivo
[1] = system: Diabrotica Balteata (Corn Root Worm); experiment: Example B1: Diabrotica balteata (corn root worm), maize sprouts sprayed, L2 larvae; details: 96 h, application rate of 200 ppm, 4 days after infestation, L2 larvae, read-out: control in at least one of the two categories (mortality or growth inhibition)
Method: Maize sprouts placed onto an agar layer in 24-well microtiter plates were treated with aqueous test solutions prepared from 10′000 ppm DMSO stock solutions by spraying. After drying, the plates were infested with L2 larvae (6 to 10 per well). The samples were assessed for mortality and growth inhibition in comparison to untreated samples 4 days after infestation.

[2] = system: Chilo suppressalis (Striped Rice Stemborer); experiment: Example B3: Chilo suppressalis (striped rice stemborer), artificial diet, L2 larvae; details: 144 h, application rate of 200 ppm, 6 days after infestation, L2 larvae, read-out: control in at least one of the three categories (mortality, anti-feedant effect, or growth inhibition)
Method: 24-well microtiter plates with artificial diet were treated with aqueous test solutions prepared from 10′000 ppm DMSO stock solutions by pipetting. After drying, the plates were infested with L2 larvae (6-8 per well). The samples were assessed for mortality, anti-feeding effect, and growth inhibition in comparison to untreated samples 6 days after infestation. Control of Chilo suppressalis by a test sample is given when at least one of the categories mortality, anti-feedant effect, and growth inhibition is higher than the untreated sample.

[3] = system: Plutella xylostella (Diamond Back Moth); experiment: Example B4: Plutella xylostella (diamond back moth), artificial diet, eggs, 24-well; details: 192 h, application rate of 200 ppm, 8 days after infestation, eggs, read-out: control in at least one of the two categories (mortality or growth inhibition)
Method: 24-well microtiter plates with artificial diet were treated with aqueous test solutions prepared from 10′000 ppm DMSO stock solutions by pipetting. After drying, Plutella eggs were pipetted through a plastic stencil onto a gel blotting paper and the plate was closed with it. The samples were assessed for mortality and growth inhibition in comparison to untreated samples 8 days after infestation.

[4] = system: Spodoptera littoralis (Egyptian Cotton Leaf Worm); experiment: Example B7: Spodoptera littoralis (Egyptian cotton leaf worm), cotton leaf discs sprayed, L1 larvae; details: foliar, 72 h, application rate of 200 ppm, 3 days after infestation, L1 larvae, read-out: control in at least one of the three categories (mortality, anti-feedant effect, or growth inhibition)
Method: Cotton leaf discs were placed onto agar in 24-well microtiter plates and sprayed with aqueous test solutions prepared from 10′000 ppm DMSO stock solutions. After drying the leaf discs were infested with five L1 larvae. The samples were assessed for mortality, anti-feeding effect, and growth inhibition in comparison to untreated samples 3 days after infestation. Control of Spodoptera littoralis by a test sample is given when at least one of the categories mortality, anti-feedant effect, and growth inhibition is higher than the untreated sample.

C[C@H](Nc1ncnc2c(Cl)cc(C(F)(F)F)cc12)c1ncnn1-c1ccc(C#N)cn1 [P.17, 6-[5-[(1S)-1-[[8-chloro-6-(trifluoromethyl)quinazolin-4-yl]amino]ethyl]-1,2,4-triazol-1-yl]pyridine-3-carbonitrile]
≥ 80%: percent control (mortality or growth inhibition) at 200 ppm [1] | percent control (mortality, anti-feedant effect or growth inhibition) at 200 ppm [2] | percent control (mortality or growth inhibition) at 200 ppm [3] | percent control (mortality, anti-feedant effect or growth inhibition) at 200 ppm [4]

C[C@@H](c1ncnn1-c1ccc(C#N)cn1)N(C)c1ncnc2c(Cl)cc(C(F)(F)F)cc12 [P.19, 6-[5-[(1S)-1-[[8-chloro-6-(trifluoromethyl)quinazolin-4-yl]-methyl-amino]ethyl]-1,2,4-triazol-1-yl]pyridine-3-carbonitrile]
≥ 80%: percent control (mortality or growth inhibition) at 200 ppm [1] | percent control (mortality, anti-feedant effect or growth inhibition) at 200 ppm [2] | percent control (mortality or growth inhibition) at 200 ppm [3] | percent control (mortality, anti-feedant effect or growth inhibition) at 200 ppm [4]

CC(Nc1ncnc2c(Br)cc(Br)cc12)c1ncnn1-c1ccc(C#N)cn1 (stereo not shown) [P.30, 6-[5-[1-[(6,8-dibromoquinazolin-4-yl)amino]ethyl]-1,2,4-triazol-1-yl]pyridine-3-carbonitrile]
≥ 80%: percent control (mortality or growth inhibition) at 200 ppm [1] | percent control (mortality, anti-feedant effect or growth inhibition) at 200 ppm [2] | percent control (mortality or growth inhibition) at 200 ppm [3] | percent control (mortality, anti-feedant effect or growth inhibition) at 200 ppm [4]

CC(Nc1ncnc2c(OC(F)F)cc(Br)cc12)c1nccnc1-n1nccn1 (stereo not shown) [P.31, 6-bromo-8-(difluoromethoxy)-N-[1-[3-(triazol-2-yl)pyrazin-2-yl]ethyl]quinazolin-4-amine]
≥ 80%: percent control (mortality or growth inhibition) at 200 ppm [1] | percent control (mortality, anti-feedant effect or growth inhibition) at 200 ppm [2] | percent control (mortality or growth inhibition) at 200 ppm [3] | percent control (mortality, anti-feedant effect or growth inhibition) at 200 ppm [4]

CC(Nc1ncnc2c(C(F)(F)F)cc(Br)cc12)c1nccnc1-n1nccn1 (stereo not shown) [P.33, 6-bromo-N-[1-[3-(triazol-2-yl)pyrazin-2-yl]ethyl]-8-(trifluoromethyl)quinazolin-4-amine]
≥ 80%: percent control (mortality or growth inhibition) at 200 ppm [1] | percent control (mortality, anti-feedant effect or growth inhibition) at 200 ppm [2] | percent control (mortality or growth inhibition) at 200 ppm [3] | percent control (mortality, anti-feedant effect or growth inhibition) at 200 ppm [4]

CC(Nc1ncnc2c(Br)cc(C(F)(F)F)cc12)c1nccnc1-n1nccn1 (stereo not shown) [P.34, 8-bromo-N-[1-[3-(triazol-2-yl)pyrazin-2-yl]ethyl]-6-(trifluoromethyl)quinazolin-4-amine]
≥ 80%: percent control (mortality or growth inhibition) at 200 ppm [1] | percent control (mortality, anti-feedant effect or growth inhibition) at 200 ppm [2] | percent control (mortality or growth inhibition) at 200 ppm [3] | percent control (mortality, anti-feedant effect or growth inhibition) at 200 ppm [4]

CC(Nc1ncnc2c(Cl)cc(C(F)(F)F)cc12)c1nccnc1-n1nccn1 (stereo not shown) [P.35, 8-chloro-N-[1-[3-(triazol-2-yl)pyrazin-2-yl]ethyl]-6-(trifluoromethyl)quinazolin-4-amine]
≥ 80%: percent control (mortality or growth inhibition) at 200 ppm [1] | percent control (mortality, anti-feedant effect or growth inhibition) at 200 ppm [2] | percent control (mortality or growth inhibition) at 200 ppm [3] | percent control (mortality, anti-feedant effect or growth inhibition) at 200 ppm [4]

CC(Nc1ncnc2c(Br)cc(Br)cc12)c1nccnc1-n1nccn1 (stereo not shown) [P.37, 6,8-dibromo-N-[1-[3-(triazol-2-yl)pyrazin-2-yl]ethyl]quinazolin-4-amine]
≥ 80%: percent control (mortality or growth inhibition) at 200 ppm [1] | percent control (mortality, anti-feedant effect or growth inhibition) at 200 ppm [2] | percent control (mortality or growth inhibition) at 200 ppm [3] | percent control (mortality, anti-feedant effect or growth inhibition) at 200 ppm [4]

CC(Nc1ncnc2c(Br)cc(Br)cc12)c1nccnc1-c1ncccn1 (stereo not shown) [P.38, 6,8-dibromo-N-[1-(3-pyrimidin-2-ylpyrazin-2-yl)ethyl]quinazolin-4-amine]
≥ 80%: percent control (mortality or growth inhibition) at 200 ppm [1] | percent control (mortality, anti-feedant effect or growth inhibition) at 200 ppm [2] | percent control (mortality or growth inhibition) at 200 ppm [3] | percent control (mortality, anti-feedant effect or growth inhibition) at 200 ppm [4]

CC(Nc1ncnc2c(C(F)(F)F)cc(Cl)cc12)c1nccnc1-n1nccn1 (stereo not shown) [P.39, 6-chloro-N-[1-[3-(triazol-2-yl)pyrazin-2-yl]ethyl]-8-(trifluoromethyl)quinazolin-4-amine]
≥ 80%: percent control (mortality or growth inhibition) at 200 ppm [1] | percent control (mortality, anti-feedant effect or growth inhibition) at 200 ppm [2] | percent control (mortality or growth inhibition) at 200 ppm [3] | percent control (mortality, anti-feedant effect or growth inhibition) at 200 ppm [4]

CC(Nc1ncnc2c(C(F)(F)F)cc(C(F)(F)F)cc12)c1nccnc1-n1nccn1 (stereo not shown) [P.56, N-[1-[3-(triazol-2-yl)pyrazin-2-yl]ethyl]-6,8-bis(trifluoromethyl)quina-zolin-4-amine]
≥ 80%: percent control (mortality or growth inhibition) at 200 ppm [1] | percent control (mortality, anti-feedant effect or growth inhibition) at 200 ppm [2] | percent control (mortality or growth inhibition) at 200 ppm [3] | percent control (mortality, anti-feedant effect or growth inhibition) at 200 ppm [4]

CC(Nc1ncnc2c(Br)cc(C(F)(F)F)cc12)c1nccnc1-c1ncccn1 (stereo not shown) [P.96, 8-bromo-N-[1-(3-pyrimidin-2-ylpyrazin-2-yl)ethyl]-6-(trifluoromethyl)quinazolin-4-amine]
≥ 80%: percent control (mortality or growth inhibition) at 200 ppm [1] | percent control (mortality, anti-feedant effect or growth inhibition) at 200 ppm [2] | percent control (mortality or growth inhibition) at 200 ppm [3] | percent control (mortality, anti-feedant effect or growth inhibition) at 200 ppm [4]

CC(c1nccnc1-c1ncccn1)N(C)c1ncnc2c(Br)cc(C(F)(F)F)cc12 (stereo not shown) [P.97, 8-bromo-N-methyl-N-[1-(3-pyrimidin-2-ylpyrazin-2-yl)ethyl]-6-(trifluoromethyl)quinazolin-4-amine]
≥ 80%: percent control (mortality or growth inhibition) at 200 ppm [1] | percent control (mortality, anti-feedant effect or growth inhibition) at 200 ppm [2] | percent control (mortality or growth inhibition) at 200 ppm [3] | percent control (mortality, anti-feedant effect or growth inhibition) at 200 ppm [4]

CC(c1nccnc1-c1ncccn1)N(CC1CC1)c1ncnc2c(Br)cc(C(F)(F)F)cc12 (stereo not shown) [P.99, 8-bromo-N-(cyclopropylmethyl)-N-[1-(3-pyrimidin-2-ylpyrazin-2-yl)ethyl]-6-(trifluoromethyl)quinazolin-4-amine]
≥ 80%: percent control (mortality or growth inhibition) at 200 ppm [1] | percent control (mortality, anti-feedant effect or growth inhibition) at 200 ppm [2] | percent control (mortality or growth inhibition) at 200 ppm [3] | percent control (mortality, anti-feedant effect or growth inhibition) at 200 ppm [4]

CC(c1nccnc1-c1ncccn1)N(C)c1ncnc2c(Cl)cc(C(F)(F)F)cc12 (stereo not shown) [P.100, 8-chloro-N-methyl-N-[1-(3-pyrimidin-2-ylpyrazin-2-yl)ethyl]-6-(trifluoromethyl)quinazolin-4-amine]
≥ 80%: percent control (mortality or growth inhibition) at 200 ppm [1] | percent control (mortality, anti-feedant effect or growth inhibition) at 200 ppm [2] | percent control (mortality or growth inhibition) at 200 ppm [3] | percent control (mortality, anti-feedant effect or growth inhibition) at 200 ppm [4]

CC(Nc1ncnc2c(Cl)cc(C(F)(F)F)cc12)c1nccnc1-c1ncccn1 (stereo not shown) [P.101, 8-chloro-N-[1-(3-pyrimidin-2-ylpyrazin-2-yl)ethyl]-6-(trifluoromethyl)quinazolin-4-amine]
≥ 80%: percent control (mortality or growth inhibition) at 200 ppm [1] | percent control (mortality, anti-feedant effect or growth inhibition) at 200 ppm [2] | percent control (mortality or growth inhibition) at 200 ppm [3] | percent control (mortality, anti-feedant effect or growth inhibition) at 200 ppm [4]

CC(c1nccnc1-n1nccn1)N(C)c1ncnc2c(Cl)cc(C(F)(F)F)cc12 (stereo not shown) [P.102, 8-chloro-N-methyl-N-[1-[3-(triazol-2-yl)pyrazin-2-yl]ethyl]-6-(trifluoromethyl)quinazolin-4-amine]
≥ 80%: percent control (mortality or growth inhibition) at 200 ppm [1] | percent control (mortality, anti-feedant effect or growth inhibition) at 200 ppm [2] | percent control (mortality or growth inhibition) at 200 ppm [3] | percent control (mortality, anti-feedant effect or growth inhibition) at 200 ppm [4]

CC(c1nccnc1-n1nccn1)N(C)c1ncnc2c(C(F)(F)F)cc(C(F)(F)F)cc12 (stereo not shown) [P.103, N-methyl-N-[1-[3-(triazol-2-yl)pyrazin-2-yl]ethyl]-6,8-bis(trifluoromethyl)quina-zolin-4-amine]
≥ 80%: percent control (mortality or growth inhibition) at 200 ppm [1] | percent control (mortality, anti-feedant effect or growth inhibition) at 200 ppm [2] | percent control (mortality or growth inhibition) at 200 ppm [3] | percent control (mortality, anti-feedant effect or growth inhibition) at 200 ppm [4]

CC(c1nccnc1-n1nccn1)N(C)c1ncnc2c(Br)cc(C(F)(F)F)cc12 (stereo not shown) [P.104, 8-bromo-N-methyl-N-[1-[3-(triazol-2-yl)pyrazin-2-yl]ethyl]-6-(trifluoromethyl)quinazolin-4-amine]
≥ 80%: percent control (mortality or growth inhibition) at 200 ppm [1] | percent control (mortality, anti-feedant effect or growth inhibition) at 200 ppm [2] | percent control (mortality or growth inhibition) at 200 ppm [3] | percent control (mortality, anti-feedant effect or growth inhibition) at 200 ppm [4]
